Data published in ChEMBL document CHEMBL3044697, “Natural products-based insecticidal agents 13. Semisynthesis and insecticidal activity of novel phenazine derivatives of 4β-acyloxypodophyllotoxin modified in the E-ring against Mythimna separata Walker in vivo” (2013).
The source made the active and inactive calls. The rule behind the calls is not given here.

Key:
[1] = test system: Mythimna separata; assay: Insecticidal activity against Mythimna separata (Oriental armyworm) pre-third-instar larvae fed on 1 mg/ml compound pre-treated wheat leaves assessed as induction of malformation of pupae with imperfect wings measured during emergence period by leaf-dipping method; type: functional, organism-based
[2] = test system: Mythimna separata; assay: Insecticidal activity against Mythimna separata (Oriental armyworm) pre-third-instar larvae fed on 1 mg/ml compound pre-treated wheat leaves assessed as insect mortality by leaf-dipping method; type: functional, organism-based; details: TDE = time-dependent effect
[3] = test system: Mythimna separata; assay: Insecticidal activity against Mythimna separata (Oriental armyworm) pre-third-instar larvae fed on 1 mg/ml compound pre-treated wheat leaves assessed as insect mortality measured after 34 days by leaf-dipping method; type: functional
[4] = test system: Mythimna separata; assay: Insecticidal activity against Mythimna separata (Oriental armyworm) pre-third-instar larvae fed on 1 mg/ml compound pre-treated wheat leaves assessed as insect mortality measured after 20 days by leaf-dipping method; type: functional
[5] = test system: Mythimna separata; assay: Insecticidal activity against Mythimna separata (Oriental armyworm) pre-third-instar larvae fed on 1 mg/ml compound pre-treated wheat leaves assessed as insect mortality measured after 10 days by leaf-dipping method; type: functional
[6] = test system: Mythimna separata; assay: Insecticidal activity against Mythimna separata (Oriental armyworm) pre-third-instar larvae fed on 1 mg/ml compound pre-treated wheat leaves assessed as induction of malformation of pupae measured during pupation period by leaf-dipping method; type: functional, organism-based

| Structure (SMILES) | Activity [1] | Activity [2] | mortality [3] [%] | mortality [4] [%] | mortality [5] [%] | Activity [6] |
| --- | --- | --- | --- | --- | --- | --- |
| COc1cc([C@@H]2c3cc4c(cc3[C@@H](OC(=O)c3cccc(C)c3)[C@H]3COC(=O)[C@H]23)OCO4)cc2nc3ccccc3nc12 | Active | tde | 41.4 | 13.8 | 6.7 | – |
| COc1cc([C@@H]2c3cc4c(cc3[C@@H](OC(=O)Cc3ccc5ccccc5c3)[C@H]3COC(=O)[C@H]23)OCO4)cc2nc3ccccc3nc12 | Active | tde | 51.7 | 6.9 | 3.3 | – |
| COc1cc([C@@H]2c3cc4c(cc3[C@@H](OC(=O)c3ccc([N+](=O)[O-])cc3)[C@H]3COC(=O)[C@H]23)OCO4)cc2nc3ccccc3nc12 | – | tde | 37.9 | 13.8 | 3.3 | – |
| COc1cc([C@@H]2c3cc4c(cc3[C@@H](O)[C@H]3COC(=O)[C@H]23)OCO4)cc(OC)c1O [4'-DEMETHYLEPIPODOPHYLLOTOXIN] | – | tde | 37.9 | 13.8 | 6.7 | – |
| COc1cc([C@@H]2c3cc4c(cc3[C@H](O)[C@H]3COC(=O)[C@H]23)OCO4)cc(OC)c1OC [PODOFILOX] | – | tde | 34.5 | 17.2 | 6.7 | – |
| COc1cc([C@@H]2c3cc4c(cc3[C@@H](OC(=O)c3ccc(Cl)cc3)[C@H]3COC(=O)[C@H]23)OCO4)cc2nc3ccccc3nc12 | – | tde | 48.3 | 17.2 | 0 | – |
| CCCCCCCCCCCCCCCC(=O)O[C@@H]1c2cc3c(cc2[C@@H](c2cc(OC)c4nc5ccccc5nc4c2)[C@H]2C(=O)OC[C@@H]21)OCO3 | – | tde | 27.6 | 6.9 | 0 | – |
| CCCCCCCCCCCC(=O)O[C@@H]1c2cc3c(cc2[C@@H](c2cc(OC)c4nc5ccccc5nc4c2)[C@H]2C(=O)OC[C@@H]21)OCO3 | – | tde | 34.5 | 6.9 | 0 | Active |
| COc1cc([C@@H]2c3cc4c(cc3[C@@H](OC(=O)c3ccccc3Cl)[C@H]3COC(=O)[C@H]23)OCO4)cc2nc3ccccc3nc12 | – | tde | 51.7 | 20.7 | 10 | Active |
| COc1cc([C@@H]2c3cc4c(cc3[C@@H](O)[C@H]3COC(=O)[C@H]23)OCO4)cc2nc3ccccc3nc12 | – | tde | 31 | 13.8 | 3.3 | Active |
| CCCCCCCCCCC(=O)O[C@@H]1c2cc3c(cc2[C@@H](c2cc(OC)c4nc5ccccc5nc4c2)[C@H]2C(=O)OC[C@@H]21)OCO3 | Active | tde | 37.9 | 10.3 | 0 | Active |
| COc1cc([C@@H]2c3cc4c(cc3[C@@H](OC(=O)c3ccc(Cl)c([N+](=O)[O-])c3)[C@H]3COC(=O)[C@H]23)OCO4)cc2nc3ccccc3nc12 | Active | tde | 55.2 | 27.6 | 10 | – |
| COc1cc([C@@H]2c3cc4c(cc3[C@@H](OC(C)=O)[C@H]3COC(=O)[C@H]23)OCO4)cc2nc3ccccc3nc12 | – | tde | 41.4 | 20.7 | 6.7 | – |
| CCC(=O)O[C@@H]1c2cc3c(cc2[C@@H](c2cc(OC)c4nc5ccccc5nc4c2)[C@H]2C(=O)OC[C@@H]21)OCO3 | Active | tde | 55.2 | 27.6 | 20 | – |
| COc1cc([C@@H]2c3cc4c(cc3[C@@H](OC(=O)c3cccc(Cl)c3)[C@H]3COC(=O)[C@H]23)OCO4)cc2nc3ccccc3nc12 | – | tde | 41.4 | 17.2 | 6.7 | Active |
| CC(=O)O[C@@H]1C[C@H](O)[C@@]23CO[C@@H](O)[C@]1(C)[C@@H]2C[C@@H](O)[C@]1(C)[C@@H]3C(=O)[C@H](OC(C)=O)[C@@]2(C)[C@H](c3ccoc3)C[C@H]3O[C@]321 [TOOSENDANIN] | – | tde | 51.7 | 27.6 | 10 | – |
| COc1cc([C@@H]2c3cc4c(cc3[C@@H](OC(=O)c3ccccc3)[C@H]3COC(=O)[C@H]23)OCO4)cc2nc3ccccc3nc12 | – | tde | 24.1 | 17.2 | 3.3 | – |
| CCCC(=O)O[C@@H]1c2cc3c(cc2[C@@H](c2cc(OC)c4nc5ccccc5nc4c2)[C@H]2C(=O)OC[C@@H]21)OCO3 | Active | tde | 37.9 | 10.3 | 3.3 | – |
